Assay [1] has as its system U-87 MG. The assay is described as follows: Antiproliferative activity against human U87MG cells after 48 hrs by MTS assay. The class given is functional, cell-based, U-87MG ATCC.
For assay [2], the system named is U373 MG. The assay is described as follows: Antiproliferative activity against human U373MG cells after 48 hrs by MTS assay. Format: functional, cell-based, U-373MG ATCC. (Formazan colour is commonly taken as a measure of viable cells.)
In assay [3] the test system is U-87 MG. In words: Antiproliferative activity against human U87MG cells after 96 hrs by SRB assay. Format: functional, U-87MG ATCC. On the technique in general: In SRB staining, fixed cells bind dye roughly in proportion to their protein.
Assay [4] deals with U-87 MG. In words: Inhibition of cell proliferation of human U87 cells over-expressing EGFRvIII at 5 uM. Format: functional, U-87MG ATCC.
For the next assay, the system named is LN-229. In words: Inhibition of cell proliferation of human LN229 cells at 5 uM. The class given is functional.
Assay [5] relates to U-251. The assay is described as follows: Inhibition of cell proliferation of human U251 cells at 5 uM. Format: functional.
In assay [6] the test system is U-251. The assay is described as follows: Antiproliferative activity against human U251 cells by MTT assay. Format: functional, cell-based.
For assay [7], the system named is U-251. The assay is described as follows: Antiproliferative activity against human U251MG cells after 120 hrs by SRB assay. The class given is functional, cell-based. The settings on record: U-251, 120 h.
Assay [8] can be described thus: Antiproliferative activity against mouse GL26 cells after 120 hrs by WST-1 assay. The class given is functional, cell-based. The settings on record: GL26, 120 h.
The test system of assay [9] is U-251. The assay is described as follows: Antiproliferative activity against human U251 cells after 120 hrs by WST-1 assay. Format: functional, cell-based. The settings on record: U-251, 120 h.
Assay [10] can be described thus: Antiproliferative activity against human RN1 cells assessed as reduction in cell viability after 72 hrs by AlamarBlue assay. Format: functional, cell-based. The settings on record: RN1, 72 h. A general note: Resazurin is reduced to fluorescent resorufin, in cell work by metabolically active cells.
The test system of assay [11] is U-251. The assay is described as follows: Antiproliferative activity against human U251 cells assessed as reduction in cell viability after 72 hrs in presence of irradiation by AlamarBlue assay. The class given is functional, cell-based. The settings on record: U-251, light or radiation study.
Assay [12] in a line: Antiproliferative activity against human RN1 cells assessed as reduction in cell viability after 72 hrs in presence of irradiation by AlamarBlue assay. The class given is functional, cell-based. The settings on record: RN1, light or radiation study.
For assay [13], the system named is SF-295. In words: Cytotoxicity against human SF295 cells after 72 hrs by MTT assay. Format: functional, cell-based. The settings on record: SF-295, 72 h.
For a further assay, the system named is PBMC. The assay is described as follows: Cytotoxicity against human PBMC after 72 hrs by MTT assay. The class given is cell-based.
Assay [14] deals with U-87 MG. The assay is described as follows: Antiproliferative activity against human U87 cells. Format: functional, cell-based, U-87MG ATCC.
For a further assay, the system named is SNB-19. The assay is described as follows: Antiproliferative activity against human SNB19 cells after 72 hrs by WST-1 assay. The settings on record: SNB-19, 72 h. The class given is functional, cell-based.
Assay [15] concerns U-251. In words: Antitumor activity against human U251 cells xenografted in CAnN. Cg-Foxn1nu/CrlCrlj nude mouse assessed as tumor growth inhibition at 240 mg/kg, ip dosed 5 times a week for 39 days relative to control. Format: functional. The settings on record: U-251, ip, 936 h, read-out: TGI.
For assay [16], the system named is U-251. In words: Antitumor activity against human U251 cells xenografted in CAnN. Cg-Foxn1nu/CrlCrlj nude mouse assessed as inhibition of tumor weight at 240 mg/kg, ip dosed 5 times a week for 39 days relative to control. Format: functional. The settings on record: U-251, ip, 936 h.
Assay [17] concerns U-251. In words: Antiproliferative activity against human U251 cells after 6 days by cell counting analysis. Format: functional. The settings on record: U-251, 144 h.
For the next assay, the system named is SF-268. In words: Antiproliferative activity against human SF268 cells after 6 days by cell counting analysis. The class given is functional. The settings on record: SF-268, 144 h.
For assay [18], the system named is SF-295. In words: Antiproliferative activity against human SF295 cells after 6 days by cell counting analysis. The settings on record: SF-295, 144 h. Format: functional.
A further assay relates to SF-539. The assay is described as follows: Antiproliferative activity against human SF539 cells after 6 days by cell counting analysis. The class given is functional. The settings on record: SF-539, 144 h.
For the next assay, the system named is SNB-75. The assay is described as follows: Antiproliferative activity against human SNB75 cells after 6 days by cell counting analysis. Format: functional. The settings on record: SNB-75, 144 h.
Another assay has as its system SNB-78. In words: Antiproliferative activity against human SNB78 cells after 6 days by cell counting analysis. The class given is functional. The settings on record: SNB-78, 144 h.
For assay [19], the system named is U373 MG. The assay is described as follows: Antiproliferative activity against human U373MG cells after 72 hrs by MTS assay. Format: functional, cell-based, U-373MG ATCC.
Assay [20] concerns U-87 MG. The assay is described as follows: Antiproliferative activity against human U87MG cells after 72 hrs by MTS assay. The class given is functional, cell-based, U-87MG ATCC.
Another assay deals with T98G. In words: Antiproliferative activity against human T98G cells after 72 hrs by MTS assay. The class given is functional, cell-based.
Assay [21] in a line: Antiproliferative activity against human PRT-HU2 cells after 72 hrs by MTS assay. Format: functional, cell-based.
Assay [22] has as its system U-251. In words: Antiproliferative activity against human U251 cells after 72 hrs by coulter counting analysis. Format: functional, cell-based. The settings on record: U-251, 72 h.
Assay [23] can be described thus: Antiproliferative activity against human DBTRG cells after 72 hrs by coulter counting analysis. The class given is functional, cell-based.
In assay [24] the test system is U-87 MG. The assay is described as follows: Antiproliferative activity against human U87MG cells after 72 hrs by coulter counting analysis. Format: functional, cell-based, U-87MG ATCC.
In assay [25] the test system is U-87 MG. In words: Antiproliferative activity against human U87 cells after 48 hrs by MTT assay. The class given is functional, U-87MG ATCC.
The test system of assay [26] is U-87 MG. In words: Antiproliferative activity against human U87MG cells after 72 hrs by MTT assay. Format: functional, cell-based, U-87MG ATCC.
Assay [27] deals with U-87 MG. In words: Antiproliferative activity against human U87MG cells after 24 hrs by WST-1 assay. Format: functional, cell-based, U-87MG ATCC.
Assay [28] in a line: Antiproliferative activity against human M059K cells after 48 hrs by WST-1 assay. Format: functional, cell-based.
Assay [29] can be described thus: Antiproliferative activity against human GBM95 cells after 72 hrs by MTT assay. Format: functional, cell-based.

In brackets after ≈: the same amount, converted by molar mass.

In general, IC50 refers to the concentration that inhibits the measured activity by half. High values mean a need for much substance, low ones inhibition by little substance. What is called GI50 is the concentration giving 50% growth inhibition. In general, inhibition refers to the share of the control response that was lost under treatment. As usually defined, the EC50 is the midpoint of the concentration-response curve.

Take `O=C1[C@@H]2CS[C@]3(C(=O)Nc4ccccc43)N2C(=O)N1Cc1ccc(Cl)cc1`: the values for the half-maximal inhibitory concentration (IC50) with U-87 MG [1] and with U373 MG [2] were 2500 nM and 5700 nM, respectively.
In the assay with U-87 MG [3], `NC1(Cc2ccc(Cl)cc2)CCN(c2ncnc3[nH]ccc23)CC1` showed a concentration for 50% growth inhibition (GI50) of 6300 nM.
Turning to `O=c1[nH]c2ncc(-c3ccc(-c4nc[nH]n4)cc3)nc2n1CCC1CCOCC1`, the inhibition at 5 µM in the assay with U-87 MG [4], in the assay with LN-229 and with U-251 [5] was 60% throughout.
In the assay with U-251 [6], `CCN(CC)CCCC(C)Nc1c2ccc(Cl)cc2nc2ccc(OC)cc12` (stereo not drawn) [QUINACRINE] displayed an IC50 of 5000 nM.
In turn, `CN(C)CCN1C(=O)c2cc(NCCc3ccc(O)c(CN(C)C)c3)c3c4c(cc(NCCc5ccc(O)c(CN(C)C)c5)c(c24)C1=O)C(=O)N(CCN(C)C)C3=O` returned an IC50 with U-251 [7] of 33 nM.
Take `C=C1/C(=C/C=C2\CCC[C@]3(C)[C@@H]([C@H](C)CCCCNC(=O)CCC(=O)O)CC[C@@H]23)C[C@@H](O)C[C@@H]1O`: the IC50 in assay [8] came to 0.016 nM; in the assay on U-251 [9] it was 0.457 nM.
As to `COc1cc(COc2ccc(NC(=O)CCCc3ccc(-c4cccnc4F)cc3)cc2)c([N+](=O)[O-])cc1OC`, the values for the half-maximal effective concentration (EC50) (in assay [10]; in the assay with U-251 [11]; in assay [12]) were 37400 nM, 1300 nM and 300 nM, respectively.
Turning to `O=C1C=C(N[C@@H](Cc2ccccc2)C(=O)O)C(=O)c2ccccc21`, the IC50 with SF-295 [13] was determined as 2000 nM; with PBMC, 37900 nM.
As to `NS(=O)(=O)c1cccc2c1C(=O)c1cccc(O)c1C2=O`, in the assay with U-87 MG [14], the half-inhibitory concentration (IC50) came to 210 nM.
For the molecule `Cn1cnc2nc(Cl)nc(SCC#CCN3CCCC3)c21`, it took 5 µg/mL (≈ 15.5 µM) to reach a half-maximal effect in the assay on SNB-19 (EC50).
Regarding `Cc1oc2nc1-c1nc(co1)C(=O)N[C@@H](Cc1ccc(O)cc1)c1nc(c(C)o1)-c1nc(c(C)o1)-c1nc(co1)C(=O)N[C@@H](Cc1ccc(O)cc1)c1nc-2c(C)o1`, the inhibition in vivo at 240 mg/kg amounted to 33% with U-251 [15] and 61% in the assay with U-251 [16]. The 50% growth inhibitory concentration (GI50) in the assay on U-251 [17], in the assay on SF-268, in the assay with SF-295 [18], with SF-539, with SNB-75 and in the assay with SNB-78 was 21 to 180 nM throughout.
With `Clc1ccccc1CNc1ncnc2c1cnn2CC(Cl)c1ccc(Br)cc1` (stereo not drawn), the half-inhibitory concentration (IC50) in the assay with U373 MG [19] was 17900 nM; with U-87 MG [20], 14900 nM; in the assay with T98G it was 12500 nM; in assay [21], 14300 nM.
In the case of `Nc1c(-c2cccnc2)ncc2c1C(=O)c1c(-c3ccccn3)nn(-c3ccc(F)cc3F)c1C2=O`, the half-inhibitory concentration (IC50) (in the assay with U-251 [22]; in assay [23]; in the assay with U-87 MG [24]) was 2500 nM each time.
The molecule `Cc1nc(=O)c2c(-c3ccccc3)c(C(=O)c3ccccc3)[nH]c2[nH]1` registered a 50% growth inhibitory concentration (GI50) in the assay on U-87 MG [25] of 77 nM.
Molecule `O=C1C=C(O)C(=O)C(CC2CCC3CCCCC3C2)=C1O` (stereo not drawn) registered an IC50 in the assay on U-87 MG [26] of 23600 nM. This counts as double-digit micromolar.
Regarding `COc1ccc(/N=C/c2c(O)ccc3c2oc2cc(Cl)c(O)c(Cl)c23)cc1`, the results for the IC50 (in the assay on U-87 MG [27]; in assay [28]) were 25000 nM and 40000 nM, respectively.
As for `CC(C)=CCC1=C(NCCCCN(CN)CCCc2ccccc2)C(=O)c2ccccc2C1=O`, the values for the concentration for half-maximal inhibition (IC50) (in the assay on U-87 MG [26]; in assay [29]) were 4300 nM and 6600 nM, respectively.

The values are drawn from ChEMBL document CHEMBL4422617, “Recent advances in the discovery of small molecules targeting glioblastoma” (Eur J Med Chem, 2019).
